Results from paper PMC10740956, “A Multitarget Approach against Neuroinflammation: Alkyl Substituted Coumarins as Inhibitors of Enzymes Involved in Neurodegeneration” (Antioxidants, 2023).
Where “and” joins values, the source holds several entries; their conditions need not be identical. Identical values can stand only once.

The compounds below were run on CTX/TNA2 rat astrocytes pre-stimulated with LPS (assay: Cell metabolic activity assay (MTT), LPS pre-stimulated astrocytes). Conditions: pre-stimulated with 0.1 µg/mL LPS 20 h, then compounds 24 and 72 h.
Assay type: cell-based

Question: `C#CCOc1ccc2oc(=O)ccc2c1` [Compound 3, 6-(Prop-2-ynyloxy)-2H-chromen-2-one] was tested. Which “cell metabolic activity (MTT) versus LPS only control” value did it give?
Answer: Its value is “able to counteract the LPS-induced increase in cell metabolic activity”.

Question: Which “cell metabolic activity (MTT) versus LPS only control” value does the source give for `C#CCCCOc1ccc2ccc(=O)oc2c1` [Compound 8, 7-(Pent-4-yn-1-yloxy)-2H-chromen-2-one] here?
Answer: The value was “able to counteract the LPS-induced increase in cell metabolic activity”.

What follows are compounds tested against hCA IX (Homo sapiens, UniProt Q16790) (assay: stopped flow CO2 hydrase assay, hCA IX). Conditions: mean of 3 different assays.
Assay type: biochemical

Question: `CC#CCOc1ccc2oc(=O)ccc2c1` [Compound 4, 6-(But-2-yn-1-yloxy)-2H-chromen-2-one] was tested. Which Ki did it give?
Answer: Its Ki is 24.2 nM.

Question: With `C#CCCCOc1ccc2ccc(=O)oc2c1` [Compound 8, 7-(Pent-4-yn-1-yloxy)-2H-chromen-2-one] as the compound, how does the Ki read?
Answer: The Ki was 26.6 nM.

The compounds below were run against T1, hMAO-B (Homo sapiens, UniProt P27338) (assay: hMAO-B inhibition, recombinant enzyme, kynuramine substrate, fluorescence). Conditions: IC50 hMAO-A/IC50 hMAO-B.
T1 construct: purchased Sigma-Aldrich
T1 sequence (P27338 1-520): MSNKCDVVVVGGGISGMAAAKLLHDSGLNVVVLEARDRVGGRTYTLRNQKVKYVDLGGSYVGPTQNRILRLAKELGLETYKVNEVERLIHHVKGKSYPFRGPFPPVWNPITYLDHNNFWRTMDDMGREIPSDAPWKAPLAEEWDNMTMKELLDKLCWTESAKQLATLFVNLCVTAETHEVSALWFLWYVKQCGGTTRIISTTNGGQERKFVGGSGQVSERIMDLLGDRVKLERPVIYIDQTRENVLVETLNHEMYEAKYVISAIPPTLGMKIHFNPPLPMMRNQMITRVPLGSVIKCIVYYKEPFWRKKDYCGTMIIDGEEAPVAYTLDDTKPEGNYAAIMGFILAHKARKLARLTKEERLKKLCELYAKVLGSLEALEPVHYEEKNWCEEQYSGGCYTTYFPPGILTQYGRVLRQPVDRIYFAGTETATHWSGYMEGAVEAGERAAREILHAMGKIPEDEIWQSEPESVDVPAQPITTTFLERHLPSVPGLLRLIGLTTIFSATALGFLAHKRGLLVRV
Assay type: biochemical

Question: With `CC#CCOc1ccc2oc(=O)ccc2c1` [Compound 4, 6-(But-2-yn-1-yloxy)-2H-chromen-2-one] as the compound, how does the “SI (selectivity index for hMAO-B over hMAO-A)” value read?
Answer: Its value is 4.6.

Same assay, conditions: mean ± SD of triplicate determinations

Question: For `CC#CCOc1ccc2oc(=O)ccc2c1` [Compound 4, 6-(But-2-yn-1-yloxy)-2H-chromen-2-one], which IC50 is on record?
Answer: The IC50 was > 10 µM and 12.1 µM.

Question: Which IC50 does the source give for `C#CCOc1ccc2oc(=O)ccc2c1` [Compound 3, 6-(Prop-2-ynyloxy)-2H-chromen-2-one] here?
Answer: Its IC50 is > 10 µM and 65.4 µM.

Question: How did the IC50 turn out when `C#CCCCOc1ccc2ccc(=O)oc2c1` [Compound 8, 7-(Pent-4-yn-1-yloxy)-2H-chromen-2-one] was run?
Answer: The IC50 was 0.51 ± 0.0099 µM.

These compounds were tested against T2, AChE (electric eel) (Electrophorus electricus, UniProt O42275) (assay: biochemical). Conditions: mean ± SD of triplicate determinations.
T2 construct: from tissue
T2 sequence (O42275 24-633): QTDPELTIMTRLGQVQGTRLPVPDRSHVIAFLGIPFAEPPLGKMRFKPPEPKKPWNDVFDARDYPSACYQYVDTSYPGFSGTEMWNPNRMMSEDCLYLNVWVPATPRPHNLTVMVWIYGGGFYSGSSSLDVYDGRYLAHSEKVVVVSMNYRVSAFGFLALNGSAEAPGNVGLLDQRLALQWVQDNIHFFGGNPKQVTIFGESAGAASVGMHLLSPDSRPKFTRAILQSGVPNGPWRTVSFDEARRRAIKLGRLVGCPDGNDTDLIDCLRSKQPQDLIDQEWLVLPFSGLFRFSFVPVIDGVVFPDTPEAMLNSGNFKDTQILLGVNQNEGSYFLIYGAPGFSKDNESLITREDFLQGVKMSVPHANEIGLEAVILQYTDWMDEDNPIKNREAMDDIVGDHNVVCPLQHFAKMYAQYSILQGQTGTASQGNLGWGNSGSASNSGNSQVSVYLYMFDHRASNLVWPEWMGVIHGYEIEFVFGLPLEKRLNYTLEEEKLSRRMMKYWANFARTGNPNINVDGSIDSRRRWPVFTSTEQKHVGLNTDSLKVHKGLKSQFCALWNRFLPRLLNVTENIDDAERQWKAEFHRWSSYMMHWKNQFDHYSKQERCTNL

Question: Which IC50 does the source give for `CC#CCOc1ccc2oc(=O)ccc2c1` [Compound 4, 6-(But-2-yn-1-yloxy)-2H-chromen-2-one] here?
Answer: Its IC50 is over 100 µM.

Question: With `C#CCOc1ccc2oc(=O)ccc2c1` [Compound 3, 6-(Prop-2-ynyloxy)-2H-chromen-2-one] as the compound, how does the IC50 read?
Answer: Its IC50 is over 100 µM.

Question: For `C#CCCCOc1ccc2ccc(=O)oc2c1` [Compound 8, 7-(Pent-4-yn-1-yloxy)-2H-chromen-2-one], which IC50 is on record?
Answer: Its IC50 is over 100 µM.

These compounds were tested against T3, hMAO-A (Homo sapiens, UniProt P21397) (assay: hMAO-A inhibition, recombinant enzyme, kynuramine substrate, fluorescence). Conditions: mean ± SD of triplicate determinations.
T3 construct: purchased Sigma-Aldrich
T3 sequence (P21397 1-527): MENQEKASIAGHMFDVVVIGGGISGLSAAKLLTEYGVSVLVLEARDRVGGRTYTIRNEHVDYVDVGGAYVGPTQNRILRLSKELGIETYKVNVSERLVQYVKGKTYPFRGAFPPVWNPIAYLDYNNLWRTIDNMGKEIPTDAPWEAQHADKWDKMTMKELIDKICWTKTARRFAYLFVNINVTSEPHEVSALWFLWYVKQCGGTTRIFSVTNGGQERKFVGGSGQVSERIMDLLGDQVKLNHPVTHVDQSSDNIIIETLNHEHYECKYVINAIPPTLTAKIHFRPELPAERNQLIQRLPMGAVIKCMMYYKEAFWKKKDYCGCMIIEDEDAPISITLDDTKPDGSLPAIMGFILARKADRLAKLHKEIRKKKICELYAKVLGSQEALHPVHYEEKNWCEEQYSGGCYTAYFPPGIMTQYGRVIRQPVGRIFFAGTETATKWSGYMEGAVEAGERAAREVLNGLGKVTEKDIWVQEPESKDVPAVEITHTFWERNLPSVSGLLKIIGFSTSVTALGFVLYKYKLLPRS
Assay type: biochemical

Question: How did the IC50 turn out when `CC#CCOc1ccc2oc(=O)ccc2c1` [Compound 4, 6-(But-2-yn-1-yloxy)-2H-chromen-2-one] was run?
Answer: Its IC50 is > 10 µM and 55.7 µM.

Question: For `C#CCOc1ccc2oc(=O)ccc2c1` [Compound 3, 6-(Prop-2-ynyloxy)-2H-chromen-2-one], which IC50 is on record?
Answer: Its IC50 is > 10 µM and 40.2 µM.

Question: For `C#CCCCOc1ccc2ccc(=O)oc2c1` [Compound 8, 7-(Pent-4-yn-1-yloxy)-2H-chromen-2-one], which IC50 is on record?
Answer: The IC50 was 5.7 ± 0.21 µM.

These compounds were tested against T4, BuChE (equine serum) (Equus caballus, UniProt P81908) (assay: biochemical). Conditions: mean ± SD of triplicate determinations.
T4 construct: from tissue; host or cells: equine serum
T4 sequence (P81908 whole entry): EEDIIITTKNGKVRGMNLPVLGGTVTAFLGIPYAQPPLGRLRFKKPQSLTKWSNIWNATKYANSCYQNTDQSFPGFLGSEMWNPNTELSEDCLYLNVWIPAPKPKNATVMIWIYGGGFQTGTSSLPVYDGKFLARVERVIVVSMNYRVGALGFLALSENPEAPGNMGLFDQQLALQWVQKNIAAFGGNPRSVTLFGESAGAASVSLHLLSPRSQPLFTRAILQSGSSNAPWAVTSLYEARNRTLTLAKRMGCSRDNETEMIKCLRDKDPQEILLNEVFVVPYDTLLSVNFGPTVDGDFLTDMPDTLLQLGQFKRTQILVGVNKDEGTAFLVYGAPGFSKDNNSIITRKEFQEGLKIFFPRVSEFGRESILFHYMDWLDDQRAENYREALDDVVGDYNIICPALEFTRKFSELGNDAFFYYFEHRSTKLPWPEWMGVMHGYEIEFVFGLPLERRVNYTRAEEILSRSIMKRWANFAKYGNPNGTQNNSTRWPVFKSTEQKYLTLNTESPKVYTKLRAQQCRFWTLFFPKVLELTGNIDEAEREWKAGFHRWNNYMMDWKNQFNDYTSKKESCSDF
Assay type: biochemical

Question: `CC#CCOc1ccc2oc(=O)ccc2c1` [Compound 4, 6-(But-2-yn-1-yloxy)-2H-chromen-2-one] was tested. Which IC50 did it give?
Answer: Its IC50 is over 100 µM.

Question: For `C#CCOc1ccc2oc(=O)ccc2c1` [Compound 3, 6-(Prop-2-ynyloxy)-2H-chromen-2-one], which IC50 is on record?
Answer: Its IC50 is over 100 µM.

Question: How did the IC50 turn out when `C#CCCCOc1ccc2ccc(=O)oc2c1` [Compound 8, 7-(Pent-4-yn-1-yloxy)-2H-chromen-2-one] was run?
Answer: The IC50 was over 100 µM.

These compounds were tested against hCA II (Homo sapiens, UniProt P00918) (assay: stopped flow CO2 hydrase assay, hCA II). Conditions: mean of 3 different assays.
Assay type: biochemical

Question: How did the Ki turn out when `CC#CCOc1ccc2oc(=O)ccc2c1` [Compound 4, 6-(But-2-yn-1-yloxy)-2H-chromen-2-one] was run?
Answer: The Ki was over 10 µM.

Question: With `C#CCCCOc1ccc2ccc(=O)oc2c1` [Compound 8, 7-(Pent-4-yn-1-yloxy)-2H-chromen-2-one] as the compound, how does the Ki read?
Answer: The Ki was over 10 µM.

These compounds were tested against hCA XII (Homo sapiens, UniProt O43570) (assay: stopped flow CO2 hydrase assay, hCA XII). Conditions: mean of 3 different assays.
Chain of hCA XII (O43570 25-354): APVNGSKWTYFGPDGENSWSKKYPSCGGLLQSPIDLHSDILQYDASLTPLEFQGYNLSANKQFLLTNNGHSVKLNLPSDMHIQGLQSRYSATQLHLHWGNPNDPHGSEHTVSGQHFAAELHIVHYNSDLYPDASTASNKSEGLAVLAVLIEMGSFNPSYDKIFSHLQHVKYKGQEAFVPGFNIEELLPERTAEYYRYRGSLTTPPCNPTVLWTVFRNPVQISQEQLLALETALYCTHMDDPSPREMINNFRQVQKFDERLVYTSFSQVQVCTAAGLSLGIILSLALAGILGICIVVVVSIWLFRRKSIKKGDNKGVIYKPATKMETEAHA
Assay type: biochemical

Question: With `CC#CCOc1ccc2oc(=O)ccc2c1` [Compound 4, 6-(But-2-yn-1-yloxy)-2H-chromen-2-one] as the compound, how does the Ki read?
Answer: Its Ki is 4.3 nM.

Question: With `C#CCCCOc1ccc2ccc(=O)oc2c1` [Compound 8, 7-(Pent-4-yn-1-yloxy)-2H-chromen-2-one] as the compound, how does the Ki read?
Answer: The Ki was 6.5 nM.

Each compound was assayed against hCA I (Homo sapiens, UniProt P00915) (assay: stopped flow CO2 hydrase assay, hCA I). Conditions: mean of 3 different assays.
Chain of hCA I (P00915 whole entry): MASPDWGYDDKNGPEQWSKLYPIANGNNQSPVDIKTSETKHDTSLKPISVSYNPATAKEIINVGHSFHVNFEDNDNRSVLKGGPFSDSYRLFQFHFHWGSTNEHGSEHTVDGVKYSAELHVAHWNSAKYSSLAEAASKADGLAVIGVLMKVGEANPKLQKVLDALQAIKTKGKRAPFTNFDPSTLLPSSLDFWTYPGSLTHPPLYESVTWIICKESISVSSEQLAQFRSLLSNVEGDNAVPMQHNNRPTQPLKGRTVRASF
Assay type: biochemical

Question: How did the Ki turn out when `CC#CCOc1ccc2oc(=O)ccc2c1` [Compound 4, 6-(But-2-yn-1-yloxy)-2H-chromen-2-one] was run?
Answer: Its Ki is over 10 µM.

Question: With `C#CCCCOc1ccc2ccc(=O)oc2c1` [Compound 8, 7-(Pent-4-yn-1-yloxy)-2H-chromen-2-one] as the compound, how does the Ki read?
Answer: The Ki was over 10 µM.

Each compound was assayed on CTX/TNA2 rat astrocytes (assay: Cell metabolic activity assay (MTT), non-inflammatory conditions). Conditions: 0-150 µM, 24-72 h.
Assay type: cell-based

Question: Which “cell metabolic activity (MTT), biocompatibility” value does the source give for `CC#CCOc1ccc2oc(=O)ccc2c1` [Compound 4, 6-(But-2-yn-1-yloxy)-2H-chromen-2-one] here?
Answer: Its value is “well tolerated up to 48 h and display a good biocompatibility at the longest exposure time (72 h)”.

Question: How did the “cell metabolic activity (MTT), biocompatibility” value turn out when `C#CCOc1ccc2oc(=O)ccc2c1` [Compound 3, 6-(Prop-2-ynyloxy)-2H-chromen-2-one] was run?
Answer: The value was “well tolerated up to 48 h and display a good biocompatibility at the longest exposure time (72 h)”.

Each compound was assayed against hCA VII (Homo sapiens, UniProt P43166) (assay: stopped flow CO2 hydrase assay, hCA VII). Conditions: mean of 3 different assays.
Chain of hCA VII (P43166 whole entry): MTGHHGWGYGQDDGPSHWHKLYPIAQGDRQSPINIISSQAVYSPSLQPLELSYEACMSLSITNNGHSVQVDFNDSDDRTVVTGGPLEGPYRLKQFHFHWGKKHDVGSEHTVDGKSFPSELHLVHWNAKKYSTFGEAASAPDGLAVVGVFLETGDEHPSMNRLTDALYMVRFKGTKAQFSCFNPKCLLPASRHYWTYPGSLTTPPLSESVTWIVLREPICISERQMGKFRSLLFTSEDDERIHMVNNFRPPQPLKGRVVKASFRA
Assay type: biochemical

Question: How did the Ki turn out when `CC#CCOc1ccc2oc(=O)ccc2c1` [Compound 4, 6-(But-2-yn-1-yloxy)-2H-chromen-2-one] was run?
Answer: The Ki was 63.3 nM.

Question: With `C#CCOc1ccc2oc(=O)ccc2c1` [Compound 3, 6-(Prop-2-ynyloxy)-2H-chromen-2-one] as the compound, how does the Ki read?
Answer: Its Ki is 61.7 nM.

Question: `C#CCCCOc1ccc2ccc(=O)oc2c1` [Compound 8, 7-(Pent-4-yn-1-yloxy)-2H-chromen-2-one] was tested. Which Ki did it give?
Answer: The Ki was 69.3 nM.

The compounds below were run on H2O2 generation in rat astrocytes pre-stimulated with LPS (assay: Hydrogen peroxide measurement in supernatants of LPS pre-stimulated astrocytes). Conditions: 24 h, 10 µM.
Assay type: cell-based
Method: Cells were seeded (8 × 10^3/well) and were left to adhere for 24 h in 96-well plates (Falcon®, Corning Incorporated, NY, USA). The medium was removed, incubating the cell monolayer in the presence of increasing concentrations of DEP, AAZ, and test compounds (0–150 µM) for 24–72 h. In a second set of experiments, cells were pre-incubated in the presence of 0.1 µg/mL LPS (lipopolysaccharide from E. coli, purchased from Merck, Darmstadt, Germany) for 20 h and further exposed to DEP, AAZ, and test compounds in the same experimental conditions.
At 24 h, cell supernatants were taken from the cultures used for the MTT assay. The quantitative determination of H2O2 released in supernatants was performed by means of a H2O2 colorimetric kit (cat. no. ADI-907-015, Enzo Life Sciences, Inc., Farmingdale, NY, USA). Then, 50 µL of supernatant/well was used and 100 µL of color reagent was added in each well. Next, wells were mixed and afterwards incubated for 30 min at r.t. The OD was measured following the manufacturer’s instructions.

Question: How did the H2O2 generation turn out when `CC#CCOc1ccc2oc(=O)ccc2c1` [Compound 4, 6-(But-2-yn-1-yloxy)-2H-chromen-2-one] was run?
Answer: The H2O2 generation was “restoring it to the untreated control levels”.
